Laboratory results taken from US6723897B2, “Methods for controlling gibberellin levels” (Monsanto Technology, LLC, priority 1998, dated 2004).
Values belong to the molecule of their own block, whether it stands above or below them.

Tests used:
[1] = system: wild-type soybeans (line A3237); assay: Summary of first two greenhouse experiments, elongation of wild-type soybeans
Experimental: (§1) Compounds are first prepared as 25 mg/ml solutions in ethanol as described above, and then diluted into 40 ml of water to prepare the final 0.25 mg/ml treatment solutions. Visual observations on solubilities (milky, clear, etc.) of the treatment solutions are noted. The treatment solutions are divided into two 20 ml portions, each in 50 ml plastic centrifuge tubes. In addition to treating seeds with solutions containing the test compounds, untreated seeds and seeds imbibed in ethanol-water solution (300 μl ethanol in 30 mls of water) are also included in this experiment as controls. In the latter case, 20 seeds are imbibed in 30 mls of solution for six hours.
(§2) Two soybean varieties are selected for testing: constitutively GA-deficient transgenic dwarf soybean line 719 (plasmid pMON29801, constitutive FMV promoter/asCPScc; which is a mixture of 719−2 and 719+17), and A3237, the wild-type parent material. […] After imbibition, seeds are removed from the test tubes, placed on wax paper to dry, and planted in bread pans containing farm soil amended with fertilizer at 20 seeds/pan. Seeds are covered with 0.5″ of vermiculite. Pans are transferred to the greenhouse, which had day/night temperatures of 86/68° F. (30/20° C.), and subirrigated. Illumination is at a light intensity of 300-400 μmolm^−2s^−1 photosynthetic photon flux; 16 hours light/8 hours dark. Subsequent waterings are also through sub-irrigation until the test is terminated three weeks later. Observations included the number of dwarf, intermediate, and tall plants; plant height; uniformity of rescue; and any visual effects.
(§3) All compounds are tested at final concentrations of 0.25, 0.025, and 0.0025 mg/ml except for GA9, which is tested at 0.125, 0.0125, and 0.00125 mg/ml. (The compounds are tested in Experiment I at only one concentration, i.e., 0.25 mg/ml). Test tubes contained […] of ethanol solution per tube. Final volumes are made up to 30 ml with deionized water. After shaking, the treatment solutions (15 ml each) are transferred to each of two 50 ml test tubes. Treatments 1 to 27 are performed on wild-type line A3237; treatments 28 to 54 are performed on constitutively GA-deficient transgenic dwarf soybean line 719 (a mixture of 719−2 and 719+17). Twenty seeds are used in each treatment. Dry seed, ethanol/water-imbibed seed (1% ethanol in water, v/v), and water-imbibed seeds are included as controls. Seeds are imbibed for 6 hours in the test solutions, then planted in bread pans containing Metromix 350 (The Scotts Company, Marysville, Ohio), and covered with 0.5″ Metro-mix. Covered pans are transferred to the greenhouse and subirrigated. Illumination is at a light intensity of 300-400 μmolm^−2s^−1 photosynthetic photon flux; 16 hours light/8 hours dark. Subsequent waterings are also through sub-irrigation until the test is terminated three weeks later. Observations included the number of dwarf, intermediate, and tall plants; plant height; uniformity of rescue; and any visual effects. Digital photographs are also taken.

[2] = system: constitutively GA-deficient transgenic dwarf soybeans (line 719); assay: Summary of first two greenhouse experiments, rescue of GA-deficient soybeans; assay type: in vivo, Glycine max; parameters: key: +: transgenic soybeans are rescued; 0: transgenic soybeans are not rescued
Experimental: as §1, §2, §3

[3] = system: constitutively GA-deficient transgenic dwarf soybean line 719; assay: Experiment I greenhouse test, seed imbibition, GA-deficient soybean; assay type: in vivo, Glycine max; parameters: Observation on Transgenic Line 719: key: −1: treated plants are shorter as compared to untreated plants; 0: treated plants had the same stature as untreated plants; 1: treated plants are slightly elongated as compared to untreated plants; 2: treated plants are moderately elongated as compared to untreated plants; 3: treated plants are highly elongated as compared to untreated plants; 4: treated plants are extremely elongated as compared to untreated plants; settings: 0.25 mg/ml; for effect in both the constitutive transgenic dwarf and wild-type soybean lines: imbibition, lines 719 and A3237; for Observation on Transgenic Line 719: seeds imbibed 5 hours
Source text: Seeds are covered with 0.5″ of vermiculite.

[4] = system: wild-type soybean line A3237; assay: Experiment I greenhouse test, seed imbibition, wild-type soybean; settings: 0.25 mg/ml; seeds imbibed 5 hours
Experimental: as §1, with “In the latter case, 20 seeds are imbibed in 30 mls of solution for six hours.” left out
After imbibition, seeds are removed from the test tubes, placed on wax paper to dry, and planted in bread pans containing farm soil amended with fertilizer at 20 seeds/pan. Seeds are covered with 0.5″ of vermiculite. Pans are transferred to the greenhouse, which had day/night temperatures of 86/68° F. (30/20° C.), and subirrigated. Illumination is at a light intensity of 300-400 μmolm^−2s^−1 photosynthetic photon flux; 16 hours light/8 hours dark. Subsequent waterings are also through sub-irrigation until the test is terminated three weeks later. Observations included the number of dwarf, intermediate, and tall plants; plant height; uniformity of rescue; and any visual effects.

[5] = system: constitutively GA-deficient transgenic dwarf soybean line 719; assay: Experiment II second greenhouse test, seed imbibition, GA-deficient soybean; assay type: in vivo, Glycine max; settings: seeds imbibed 6 hours
Experimental: as §3, with “(The” for “All compounds are tested at final concentrations of 0.25, 0.025, and 0.0025 mg/ml except for GA9, which is tested at 0.125, 0.0125, and 0.00125 mg/ml. (The”, “Treatments 1 to 27 are performed on wild-type line A3237; treatments 28 to 54 are performed on constitutively GA-deficient transgenic dwarf soybean line 719 (a mixture of 719−2 and 719+17).” left out

[6] = Particulate material present in solutions after mixing; assay type: physicochemical; settings: 0.25 mg/ml treatment solutions
Experimental: Each of the compounds noted above is weighed to the nearest 0.1 mg in a pre-tarred 1.5-ml polypropylene vial with a screw-top lid. Absolute ethanol is added to the weighed powder to prepare a 25 mg/ml solution. Solutions are thoroughly mixed using a vortex mixer. A stainless steel spatula is used to crush any particulate material remaining after extensive mixing. Vials are left overnight at room temperature, and then remixed to form the concentrated ethanol stock solutions. The presence of undissolved material is noted throughout this procedure.

[7] = 0.0025 mg/ml solution (ethanol-water)
[8] = 0.025 mg/ml solution (ethanol-water)
[9] = 0.25 mg/ml solution (ethanol-water)

Compound: C=C1C[C@]23C[C@@]1(O)CC[C@H]2[C@@]12CC[C@H](O)[C@@](C)(C(=O)O1)[C@H]2[C@@H]3C(=O)O [GA1]
Elongation of wild-type soybeans [1, 7]: − | Elongation of wild-type soybeans [1, 8]: + | Elongation of wild-type soybeans [1, 9]: + | Rescue of GA-deficient soybeans [2, 7]: + | Rescue of GA-deficient soybeans [2, 8]: + | Rescue of GA-deficient soybeans [2, 9]: + | effect in both the constitutive transgenic dwarf and wild-type soybean lines [3]: excessive elongation | Observation on Transgenic Line 719 [3]: 4 | Observation on Wild-Type Line A3237 [4]: 4 | Significant Visual Observations on Line 719 ([5]; 0.0025 mg/ml): Good rescue of dwarfs | Significant Visual Observations on Line 719 ([5]; 0.025 mg/ml): Good rescue of dwarfs

Observation on Wild-Type Line A3237 [4]: 1 | solubility in water during imbibition [6]: less soluble in water during imbibition
Compound: C=C1C[C@]23C[C@H]1CC[C@H]2[C@@]12CC[C@H](O)[C@@](C)(C(=O)O1)[C@H]2[C@@H]3C(=O)OC [GA4 methyl ester]
Rescue of GA-deficient soybeans [2, 9]: 0 | effect in both the constitutive transgenic dwarf and wild-type soybean lines [3]: slight to medium elongation | Observation on Transgenic Line 719 [3]: 1

Compound: C=C1C[C@]23C[C@H]1CC[C@H]2[C@@]12CC[C@H](O)[C@@](C)(C(=O)O1)[C@H]2[C@@H]3C(=O)O [GA4]
Elongation of wild-type soybeans [1, 9]: + | Rescue of GA-deficient soybeans [2, 9]: + | effect in both the constitutive transgenic dwarf and wild-type soybean lines [3]: slight to medium elongation | Observation on Transgenic Line 719 [3]: 2 | Observation on Wild-Type Line A3237 [4]: 2
